According to patent EP4745135A1 (Gluetacs Therapeutics (Shanghai) Co., Ltd., priority 2023, dated 2025):

Key:
GSPT1 = assay: Western blot, degradation of substrate protein in hPBMCs; format: cell-based, Human
[1] = molecular target: T1, human Cereblon WT GST-tagged protein (Homo sapiens, UniProt Q96SW2); assay: CRBN-binding affinity, HTRF (CEREBLON BINDING kit); conditions: for inhibition at 0.5 µM: read-out: Inhibition Rate at 0.5 µM (%); for inhibition at 2 µM: read-out: Inhibition Rate at 2 µM (%)
T1 construct: purchased CISBIO 64BDCRBNPEH
T1 sequence (Q96SW2 whole entry): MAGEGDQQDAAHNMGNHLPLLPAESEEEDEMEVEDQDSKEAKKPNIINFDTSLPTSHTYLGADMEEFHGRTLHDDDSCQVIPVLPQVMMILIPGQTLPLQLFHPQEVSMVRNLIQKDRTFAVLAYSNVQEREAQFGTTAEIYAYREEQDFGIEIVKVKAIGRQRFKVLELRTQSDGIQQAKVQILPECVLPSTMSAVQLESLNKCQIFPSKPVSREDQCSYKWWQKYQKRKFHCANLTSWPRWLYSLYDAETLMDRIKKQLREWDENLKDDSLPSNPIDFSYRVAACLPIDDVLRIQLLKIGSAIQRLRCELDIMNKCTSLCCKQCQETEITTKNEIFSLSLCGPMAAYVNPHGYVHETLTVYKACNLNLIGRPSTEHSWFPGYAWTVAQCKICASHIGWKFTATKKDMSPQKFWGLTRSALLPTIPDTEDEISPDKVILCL

IKZF1 = molecular target: T2, IKZF1 (Homo sapiens, UniProt Q13422+Q96SW2); assay: Western blot, degradation of substrate protein in hPBMCs; format: cell-based
T2 construct: effects of the compounds of the present disclosure on the expression of target proteins in cells; endogenous in cells; host or cells: human PBMCs (Milecell Biotechnologies)
T2 sequence (Q13422 whole entry): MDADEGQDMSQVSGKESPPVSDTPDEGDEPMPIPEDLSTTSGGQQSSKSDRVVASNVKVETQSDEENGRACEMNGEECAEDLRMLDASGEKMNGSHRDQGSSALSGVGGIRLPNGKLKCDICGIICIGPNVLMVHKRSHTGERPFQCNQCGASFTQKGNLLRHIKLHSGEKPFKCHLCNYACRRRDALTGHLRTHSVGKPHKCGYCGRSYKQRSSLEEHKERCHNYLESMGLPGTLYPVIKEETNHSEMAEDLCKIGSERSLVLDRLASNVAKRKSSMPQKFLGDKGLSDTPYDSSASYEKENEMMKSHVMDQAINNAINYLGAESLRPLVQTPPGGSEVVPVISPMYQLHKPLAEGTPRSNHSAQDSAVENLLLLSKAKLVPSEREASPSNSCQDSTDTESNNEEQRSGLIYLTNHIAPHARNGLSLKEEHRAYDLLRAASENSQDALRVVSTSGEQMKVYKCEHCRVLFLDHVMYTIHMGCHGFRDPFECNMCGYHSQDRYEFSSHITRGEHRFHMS
T2 sequence (Q96SW2 whole entry): as the sequence (Q96SW2 whole entry) above
T2 sequence (Q16531 whole entry partner): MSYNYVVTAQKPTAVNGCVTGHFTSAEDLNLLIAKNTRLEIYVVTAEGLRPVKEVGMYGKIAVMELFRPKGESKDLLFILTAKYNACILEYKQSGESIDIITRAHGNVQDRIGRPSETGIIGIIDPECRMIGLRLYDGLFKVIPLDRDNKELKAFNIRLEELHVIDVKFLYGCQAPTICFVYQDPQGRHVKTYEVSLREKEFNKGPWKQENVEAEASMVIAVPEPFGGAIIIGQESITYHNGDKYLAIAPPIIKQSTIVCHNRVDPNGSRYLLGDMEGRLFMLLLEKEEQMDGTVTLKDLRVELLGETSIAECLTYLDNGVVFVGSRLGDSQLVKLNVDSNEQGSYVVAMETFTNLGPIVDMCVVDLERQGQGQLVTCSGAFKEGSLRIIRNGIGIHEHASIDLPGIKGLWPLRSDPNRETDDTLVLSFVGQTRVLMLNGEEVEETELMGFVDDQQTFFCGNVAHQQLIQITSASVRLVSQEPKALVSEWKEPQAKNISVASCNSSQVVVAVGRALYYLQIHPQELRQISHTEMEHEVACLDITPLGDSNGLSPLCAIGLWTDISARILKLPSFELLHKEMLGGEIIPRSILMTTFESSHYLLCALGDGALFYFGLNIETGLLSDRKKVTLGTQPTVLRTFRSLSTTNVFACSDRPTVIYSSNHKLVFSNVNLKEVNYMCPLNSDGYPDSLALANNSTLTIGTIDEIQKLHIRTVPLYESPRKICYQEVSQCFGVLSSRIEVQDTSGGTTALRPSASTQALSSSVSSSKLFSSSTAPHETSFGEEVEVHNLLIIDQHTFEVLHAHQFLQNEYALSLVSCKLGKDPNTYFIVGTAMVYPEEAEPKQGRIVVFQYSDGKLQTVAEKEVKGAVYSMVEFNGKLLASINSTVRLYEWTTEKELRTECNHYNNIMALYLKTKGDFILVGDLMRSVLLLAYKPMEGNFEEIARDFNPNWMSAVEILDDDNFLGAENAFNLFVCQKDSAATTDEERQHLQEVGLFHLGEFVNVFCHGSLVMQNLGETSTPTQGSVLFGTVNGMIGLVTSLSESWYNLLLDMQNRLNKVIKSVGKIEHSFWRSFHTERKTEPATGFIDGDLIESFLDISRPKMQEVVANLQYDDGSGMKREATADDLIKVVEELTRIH

IKZF2 = molecular target: T3, IKZF2 (Homo sapiens, UniProt Q96SW2+Q9UKS7); assay: as above; format: cell-based
T3 construct: effects of the compounds of the present disclosure on the expression of target proteins in cells; endogenous in cells; host or cells: human PBMCs (Milecell Biotechnologies)
T3 sequence (Q9UKS7 whole entry): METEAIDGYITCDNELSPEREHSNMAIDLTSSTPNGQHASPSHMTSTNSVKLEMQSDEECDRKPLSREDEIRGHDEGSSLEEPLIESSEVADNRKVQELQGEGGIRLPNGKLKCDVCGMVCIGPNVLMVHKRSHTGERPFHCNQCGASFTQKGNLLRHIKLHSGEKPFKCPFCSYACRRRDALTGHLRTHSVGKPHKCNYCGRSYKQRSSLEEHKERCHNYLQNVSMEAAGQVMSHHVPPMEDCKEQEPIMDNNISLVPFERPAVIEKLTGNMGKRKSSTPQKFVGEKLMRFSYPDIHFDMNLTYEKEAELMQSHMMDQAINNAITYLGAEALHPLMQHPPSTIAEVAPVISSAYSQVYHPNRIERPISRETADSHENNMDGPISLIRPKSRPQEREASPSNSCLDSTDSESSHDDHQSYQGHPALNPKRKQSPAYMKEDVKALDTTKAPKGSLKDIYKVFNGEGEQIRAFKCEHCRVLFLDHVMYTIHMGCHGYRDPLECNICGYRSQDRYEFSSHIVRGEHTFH
T3 sequence (Q96SW2 whole entry): as the sequence (Q96SW2 whole entry) above
T3 sequence (Q16531 whole entry partner): as the sequence (Q16531 whole entry partner) above

IKZF3 = molecular target: T4, IKZF3 (Homo sapiens, UniProt Q96SW2+Q9UKT9); assay: as above; format: cell-based
T4 construct: effects of the compounds of the present disclosure on the expression of target proteins in cells; endogenous in cells; host or cells: human PBMCs (Milecell Biotechnologies)
T4 sequence (Q9UKT9 whole entry): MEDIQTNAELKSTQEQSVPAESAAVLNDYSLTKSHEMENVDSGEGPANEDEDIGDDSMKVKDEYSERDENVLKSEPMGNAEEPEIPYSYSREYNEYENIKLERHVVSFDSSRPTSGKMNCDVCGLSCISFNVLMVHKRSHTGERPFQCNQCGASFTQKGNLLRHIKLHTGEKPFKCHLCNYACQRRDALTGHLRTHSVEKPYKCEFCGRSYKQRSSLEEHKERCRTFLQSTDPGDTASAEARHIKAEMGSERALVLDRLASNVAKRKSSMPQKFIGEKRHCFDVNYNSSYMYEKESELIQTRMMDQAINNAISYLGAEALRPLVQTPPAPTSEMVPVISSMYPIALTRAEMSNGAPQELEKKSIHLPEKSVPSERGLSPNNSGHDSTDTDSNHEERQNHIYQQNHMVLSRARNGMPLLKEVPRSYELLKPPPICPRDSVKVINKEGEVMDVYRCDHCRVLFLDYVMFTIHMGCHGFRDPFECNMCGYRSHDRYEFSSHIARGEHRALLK
T4 sequence (Q96SW2 whole entry): as the sequence (Q96SW2 whole entry) above
T4 sequence (Q16531 whole entry partner): as the sequence (Q16531 whole entry partner) above

WEE1 = molecular target: T5, WEE1 (Homo sapiens, UniProt P30291+Q96SW2); assay: as above; format: cell-based
T5 construct: effects of the compounds of the present disclosure on the expression of target proteins in cells; endogenous in cells; host or cells: human PBMCs (Milecell Biotechnologies)
T5 sequence (P30291 whole entry): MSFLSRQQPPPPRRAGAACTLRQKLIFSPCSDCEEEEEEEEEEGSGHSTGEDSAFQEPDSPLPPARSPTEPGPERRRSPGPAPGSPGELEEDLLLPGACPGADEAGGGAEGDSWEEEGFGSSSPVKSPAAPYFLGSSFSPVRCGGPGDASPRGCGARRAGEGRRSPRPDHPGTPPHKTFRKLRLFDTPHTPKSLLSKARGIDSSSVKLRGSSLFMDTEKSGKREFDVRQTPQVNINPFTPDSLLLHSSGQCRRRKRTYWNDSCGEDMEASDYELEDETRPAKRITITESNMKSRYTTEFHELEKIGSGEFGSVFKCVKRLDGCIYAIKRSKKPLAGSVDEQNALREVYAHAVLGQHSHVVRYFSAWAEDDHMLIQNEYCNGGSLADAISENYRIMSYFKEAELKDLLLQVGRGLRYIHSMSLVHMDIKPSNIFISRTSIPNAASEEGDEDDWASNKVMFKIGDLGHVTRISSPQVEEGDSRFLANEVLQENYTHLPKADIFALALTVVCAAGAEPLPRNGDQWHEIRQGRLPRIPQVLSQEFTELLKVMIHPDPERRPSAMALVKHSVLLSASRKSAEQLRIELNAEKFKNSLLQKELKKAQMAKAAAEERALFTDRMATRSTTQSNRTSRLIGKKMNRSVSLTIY
T5 sequence (Q96SW2 whole entry): as the sequence (Q96SW2 whole entry) above
T5 sequence (Q16531 whole entry partner): as the sequence (Q16531 whole entry partner) above

CK1α = molecular target: T6, CK1α (Homo sapiens, UniProt P48729+Q96SW2); assay: as above; format: cell-based
T6 construct: effects of the compounds of the present disclosure on the expression of target proteins in cells; endogenous in cells; host or cells: human PBMCs (Milecell Biotechnologies)
T6 sequence (P48729 whole entry): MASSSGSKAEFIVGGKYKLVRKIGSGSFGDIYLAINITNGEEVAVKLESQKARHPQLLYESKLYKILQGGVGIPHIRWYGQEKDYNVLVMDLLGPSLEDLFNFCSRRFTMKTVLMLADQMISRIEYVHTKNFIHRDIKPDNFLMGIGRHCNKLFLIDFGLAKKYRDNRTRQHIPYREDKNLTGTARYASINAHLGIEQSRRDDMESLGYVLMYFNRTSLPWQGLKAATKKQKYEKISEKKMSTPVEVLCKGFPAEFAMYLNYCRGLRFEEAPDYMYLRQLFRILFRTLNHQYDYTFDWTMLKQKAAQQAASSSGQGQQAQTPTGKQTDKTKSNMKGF
T6 sequence (Q96SW2 whole entry): as the sequence (Q96SW2 whole entry) above
T6 sequence (Q16531 whole entry partner): as the sequence (Q16531 whole entry partner) above

[2] = Western blot, 24 hours of compound treatment, compounds tested at 50 nM and 500 nM (concentration for the table not stated)
[3] = 24 hours treatment, compounds at 50 nM and 500 nM (concentration behind the class not stated)

## O=C1CCC(N2Cc3cc(CN4CC5CCC(C4)N5c4cccc(Cl)c4Cl)ccc3C2=S)C(=O)N1 (stereo not drawn) [GT-08479, 3-(5-((8-(2,3-dichlorophenyl)-3,8-diazabicyclo[3.2.1]octan-3-yl)methyl)-1-thioxoisoindolin-2-yl)piperidine-2,6-dione]
GSPT1; [2]
  GSPT1 substrate protein remaining %: A (0% ≤ substrate protein remaining % ≤ 80%)
[1]
  inhibition at 0.5 µM: 40 to 53%
  inhibition at 2 µM: 60 to 80%
IKZF1; [2]
  IKZF 1 substrate protein remaining %: B (80%< substrate protein remaining %≤ 100%)
IKZF2; [2]
  IKZF2 substrate protein remaining %: B (80%< substrate protein remaining %≤ 100%)
IKZF3; [2]
  IKZF3 substrate protein remaining %: B (80%< substrate protein remaining %≤ 100%)
WEE1; [2]
  Wee1 substrate protein remaining %: B (80%< substrate protein remaining %≤ 100%)
CK1α; [2]
  CK1α substrate protein remaining %: B (80%< substrate protein remaining %≤ 100%)

## Cn1cc(C2CCN(Cc3cccc4c3CN(C3CCC(=O)NC3=O)C4=S)CC2)c2ccc(F)cc21 (stereo not drawn) [GT-08844, 3-(4-((4-(6-fluoro-1-methyl-1H-indol-3-yl)piperidin-1-yl)methyl)-1-thioxoisoindolin-2-yl)piperidine-2,6-dione]
GSPT1; [2]
  GSPT1 substrate protein remaining %: B (80%< substrate protein remaining %≤ 100%)
[1]
  inhibition at 0.5 µM: 40 to 53%
  inhibition at 2 µM: 60 to 80%
IKZF1; [2]
  IKZF 1 substrate protein remaining %: B (80%< substrate protein remaining %≤ 100%)
IKZF2; [2]
  IKZF2 substrate protein remaining %: B (80%< substrate protein remaining %≤ 100%)
IKZF3; [2]
  IKZF3 substrate protein remaining %: B (80%< substrate protein remaining %≤ 100%)
WEE1; [2]
  Wee1 substrate protein remaining %: A (0% ≤ substrate protein remaining % ≤ 80%)
CK1α; [2]
  CK1α substrate protein remaining %: B (80%< substrate protein remaining %≤ 100%)

## Cc1cscc1C1CCN(Cc2cccc3c2CN(C2CCC(=O)NC2=O)C3=S)CC1 (stereo not drawn) [GT-08309, 3-(4-((4-(4-methylthiophen-3-yl)piperidin-1-yl)methyl)-1-thioxoisoindolin-2-yl)piperidine-2,6-dione]
GSPT1; [3]
  GSPT1 substrate protein remaining %: B (80%< substrate protein remaining %≤ 100%)
[1]
  inhibition at 0.5 µM: 53 to 60%
  inhibition at 2 µM: 80 to 100%
IKZF1; [3]
  IKZF 1 substrate protein remaining %: B (80%< substrate protein remaining %≤ 100%)
IKZF2; [3]
  IKZF2 substrate protein remaining %: B (80%< substrate protein remaining %≤ 100%)
IKZF3; [3]
  IKZF3 substrate protein remaining %: B (80%< substrate protein remaining %≤ 100%)
WEE1; [3]
  Wee1 substrate protein remaining %: A (0% ≤ substrate protein remaining % ≤ 80%)
CK1α; [3]
  CK1α substrate protein remaining %: B (80%< substrate protein remaining %≤ 100%)

## Cc1cc(N2CCN(Cc3cccc4c3CN(C3CCC(=O)NC3=O)C4=S)CC2)cs1 (stereo not drawn) [GT-08298, 3-(4-((4-(5-methylthiophen-3-yl)piperazin-1-yl)methyl)-1-thioxoisoindolin-2-yl)piperidine-2,6-dione]
GSPT1; [2]
  GSPT1 substrate protein remaining %: B (80%< substrate protein remaining %≤ 100%)
[1]
  inhibition at 0.5 µM: 60 to 80%
  inhibition at 2 µM: 80 to 100%
IKZF1; [2]
  IKZF 1 substrate protein remaining %: B (80%< substrate protein remaining %≤ 100%)
IKZF2; [2]
  IKZF2 substrate protein remaining %: B (80%< substrate protein remaining %≤ 100%)
IKZF3; [2]
  IKZF3 substrate protein remaining %: B (80%< substrate protein remaining %≤ 100%)
WEE1; [2]
  Wee1 substrate protein remaining %: A (0% ≤ substrate protein remaining % ≤ 80%)
CK1α; [2]
  CK1α substrate protein remaining %: B (80%< substrate protein remaining %≤ 100%)

## O=C1CCC(N2Cc3cc(CN4CCC(c5ccoc5)CC4)ccc3C2=S)C(=O)N1 (stereo not drawn) [GT-08326, 3-(5-((4-(furan-3-yl)piperidin-1-yl)methyl)-1-thioxoisoindolin-2-yl)piperidine-2,6-dione]
GSPT1; [3]
  GSPT1 substrate protein remaining %: A (0% ≤ substrate protein remaining % ≤ 80%)
[1]
  inhibition at 0.5 µM: 40 to 53%
  inhibition at 2 µM: 80 to 100%
IKZF1; [3]
  IKZF 1 substrate protein remaining %: B (80%< substrate protein remaining %≤ 100%)
IKZF2; [3]
  IKZF2 substrate protein remaining %: A (0% ≤ substrate protein remaining % ≤ 80%)
IKZF3; [3]
  IKZF3 substrate protein remaining %: B (80%< substrate protein remaining %≤ 100%)
WEE1; [3]
  Wee1 substrate protein remaining %: B (80%< substrate protein remaining %≤ 100%)
CK1α; [3]
  CK1α substrate protein remaining %: A (0% ≤ substrate protein remaining % ≤ 80%)

## O=C1CCC(N2Cc3c(CN4CCN(c5ccc(F)cc5)CC4)cccc3C2=S)C(=O)N1 (stereo not drawn) [GT-08264, 3-(4-((4-(4-fluorophenyl)piperazin-1-yl)methyl)-1-thioxoisoindolin-2-yl)piperidine-2,6-dione]
GSPT1; [2]
  GSPT1 substrate protein remaining %: A (0% ≤ substrate protein remaining % ≤ 80%)
[1]
  inhibition at 0.5 µM: 40 to 53%
  inhibition at 2 µM: 80 to 100%
IKZF1; [2]
  IKZF 1 substrate protein remaining %: B (80%< substrate protein remaining %≤ 100%)
IKZF2; [2]
  IKZF2 substrate protein remaining %: B (80%< substrate protein remaining %≤ 100%)
IKZF3; [2]
  IKZF3 substrate protein remaining %: A (0% ≤ substrate protein remaining % ≤ 80%)
WEE1; [2]
  Wee1 substrate protein remaining %: A (0% ≤ substrate protein remaining % ≤ 80%)
CK1α; [2]
  CK1α substrate protein remaining %: A (0% ≤ substrate protein remaining % ≤ 80%)
